Article PMC9114170, “Investigation of the Role of Hydrophobic Amino Acids on the Structure-Activity Relationship in the Antimicrobial Venom Peptide Ponericin L1” (The Journal of membrane biology, 2021)
Ends that are not written are not given here.

Tests used:
[1] = Trichloroethanol (TCE) quenching of Trp fluorescence, solution aggregation assay; type: physicochemical; details: 2 μM peptide in PBS pH 7.0, titration with 10M TCE, λex 280 nm, λem 340, average of three replicates
Protocol: Trichloroethanol (TCE) quenching was monitored by titration of samples with 10 μL aliquots of 10M TCE (Alfa Aesar, Haverhill, Massachusetts) into peptide samples prepared as described above. After each addition of TCE, Trp fluorescence intensity was measured using λex = 280 nm and λem = 340. Corrections to the emission intensity were made for background subtraction and dilutions. The slope of the linear best fit equation to the data (eqn 2) was used as the Stern-Volmer quenching constant (Ksv) (2) F0/F=1+Ksv[Q] where F0 is the fluorescence intensity in the absence of quencher, and F is the fluorescence intensity in the presence of a given concentration of quencher [Q].
The environment of the L1 Trp residue was further probed using fluorescence quenching by trichloroethanol (TCE) which selectively exerts quenching on Trp residues which are shielded from the aqueous milieu, such as at the interior of a peptide aggregate. The results are shown in Figure 2B, with the Ksv values for the quenching shown in Supplemental Table 1. […] However, considering the reduced overall hydrophobicity of this peptide and thus higher aqueous solubility, decreased TCE quenching is not surprising.

[2] = Acrylamide quenching of Trp fluorescence in absence and presence of lipid vesicles; type: physicochemical; details: 2 μM peptide in PBS pH 7.0, λex 295 nm, λem 340, average of three replicates ± SD; for Acrylamide quenching Ksv, PCPG: 3:1 DOPC:DOPG vesicles; for Acrylamide quenching Ksv, PCPG / Acrylamide quenching Ksv, PEPG / Acrylamide quenching Ksv, PC / Acrylamide quenching Ksv, PC/Chol: 250 μM lipid; for Acrylamide quenching Ksv, PEPG: 3:1 POPE:DOPG vesicles; for Acrylamide quenching Ksv, PC: DOPC vesicles; for Acrylamide quenching Ksv, PC/Chol: DOPC:Cholesterol vesicles; for Acrylamide quenching Ksv, PBS: no lipid vesicles
Protocol: To form small unilamellar vesicles (SUVs) sonication or ethanol dilution methods were implemented ([Caputo & London, 2019]). In all cases, lipid vesicle preparation was the same. Depending on the lipid composition, appropriate volumes of lipids in chloroform were mixed in a glass tube and then allowed to dry under N2 gas for 15 minutes. The lipid films were then placed in a vacuum desiccator and allowed to dry further under a vacuum for 1 hour. For vesicles formed through ethanol dilution methods, 10 μL of pure ethanol was added to the film, and then vortex until the dissipation of the film. While continuing to vortex, the appropriate amount of PBS was added. For vesicles formed using the method of sonication, PBS was added directly to the tube while being vortexed to create multilamellar vesicles (MLVs). The MLV suspension was covered with parafilm and then placed in a high-powered bath sonicator (Avanti Lipids) and subjected to sonication for 20 minutes to create SUVs.
Acrylamide quenching was monitored by titration of samples with 10 μL aliquots of 4M acrylamide titrated into peptide samples prepared as described above. These samples contained either or [0.25] mM total lipid. After each addition of acrylamide, Trp fluorescence intensity was measured using λex = 295 nm and λem = 340. Corrections to the emission intensity were made for background subtraction, dilutions, and inner filter effects in the excitation path as described previously. The same method to calculate Ksv was used as above.
In order to gain more insight into the bilayer interactions, fluorescence quenching approaches were utilized. The peptides were exposed to the aqueous quencher acrylamide in solution or when bound to vesicles. […] Thus, peptide Trp exposure to the aqueous milieu can be gauged by the extent of quenching by acrylamide. Stern-Volmer quenching plots were created to analyze the data and Ksv (slopes of a linear fit to the data) are shown in Figure 4 and Table 2. […] In the case of L1L and L1I, there was a significant reduction in quenching between the solution (free) state of the peptide and when bound to anionic vesicles, but a much smaller reduction if any when interacting with zwitterionic vesicles. This is consistent with a more deeply buried Trp in anionic bilayers.

[3] = tested on: Gram-positive and Gram-negative strains; assay: Antimicrobial activity over the MIC panel; type: cell-based; details: highest concentration tested 15μM
Protocol: Six different strains of bacteria were streaked on LB-Miller agar plates from a frozen glycerol stock derived from the original samples shipped from CGSC (Coli Genetic Stock Center, Yale University) or ATCC (American Type Culture Collection) (Escherichia coli D31 CGSC 5165 ([Burman, Nordstrom & Boman, 1968]), Staphylococcus aureus ATCC 35556. Pseudomonas aeruginosa PA-01 ATCC 47085, Acinetobacter baumannii ATCC 19606). For each of the strains a liquid overnight culture was prepared using a single colony into fresh LB broth and placed in a shaking incubator for ~ 18 hours at 37 C at 225 rpm. After the incubation period, a 1:200 dilution was made in fresh LB broth and then used for experimentation. Minimal Inhibitory Concentration (MIC) determinations were performed using mid-log phase bacteria diluted to 5 x 10^5 CFU/mL. Next, 90 μL of this diluted culture was then pipetted into a sterile 96-well plate that contains serially diluted aliquots of the peptide variants to consist of a total volume of 100 μL. This plate was then incubated for 18 hours at 37 C. Bacterial growth was determined by taking an OD600 measurement using a Spectramax M5 multimode plate reader post incubation. Minimal Bactericidal Concentration (MBC) was performed by taking 1 μL of the culture from the MIC plate and then pipetting it on to a fresh LB agar plate. After plating this culture, the plate was then incubated overnight at 37 C. MBC was determined by the growth or the lack of growth from each well on the agar plate.
The ability of L1 and the hydrophobic variants to act as antimicrobials was investigated using the Minimal Inhibitory Concentration (MIC) and Minimal Bactericidal Concentration (MBC) assays as previously described ([Wiegand, Hilpert & Hancock, 2008]). The MIC is determined as the lowest concentration of peptide required to inhibit bacterial growth in solution, while the MBC is the lowest concentration required to act in a bactericidal mechanism (as opposed to bacteriostatic) and is determined by plating MIC cultures on antimicrobial-free media. Peptides were screened against E. coli, S. aureus, A. baumannii, P. aeruginosa, B. subtilis, and K. pneumoniae.

[4] = tested on: E. coli D31 outer membrane; assay: E. coli outer membrane permeabilization (nitrocefin / β-lactamase); type: cell-based, Escherichia coli; details: E. coli D31, nitrocefin hydrolysis, absorbance 486 nm, up to 90 minutes; peptide serially diluted from 15 μM; average of three replicates
Protocol: A single colony of E.coli D31 was taken from an LB agar plate and inoculated into fresh LB broth with 100 μg/mL ampicillin (LB-Amp), then place in a shaking incubator at 37 C (225 rpm) for ~ 18 hours. After the incubation period 100 μL was taken from the culture and diluted with 25 mL of fresh LB-Amp. The dilution was further incubated in the same conditions until an OD600 of 0.2 to 0.4 was obtained. Once the specified OD600 was reached the culture was then centrifuged at 2500 rpm for 15 minutes in a tabletop clinical centrifuge. The supernatant was discarded and then an equal amount of PBS (100 mM NaH2PO4, 200 mM NaCl, pH7) was used to resuspend the pellet.
Experimental samples were prepared in a 96-well plate in the order as follows: 10 μL of the six peptide variants that were serially diluted starting a concentration of 15 μM with the exception of the last row (used as a negative control 10 μL of 0.01% acetic acid). 80 μL of the resuspended bacteria culture, and 10 μL of 50 μg/mL nitrocefin in PBS. The absorbance was recorded at 486 nm in 5-minute intervals for a total run time of 90 minutes immediately following the addition of nitrocefin. The antimicrobial agent polymyxin B was used as a positive control. The values presented are the average of three replicates.
As the mechanism of action of the L1 venom peptide is likely a membrane disruptive mechanism, the effect of the hydrophobic substitutions on membrane permeabilization was investigated using E.coli and ovine red blood cells (RBCs). The permeabilization of the E. coli outer membrane was assayed using an enzyme-substrate pair in which the enzyme (β-lactamase) is located in the periplasmic space while the substrate (the chromogenic nitrocefin) is added to the exterior of cells. […] Similarly, the permeabilization of the E. coli inner membrane was assessed using a cytoplasmic enzyme, β-galactosidase, and a chromogenic substrate, ONPG. […]

[5] = tested on: Sheep red blood cells (RBCs); details: earlier work of the group; ref Senetra, Necelis & Caputo, 2020b; cited from earlier work
Excerpt: The ponerine ant, Neoponera goeldii (previously classified as Pachycondyla goeldii), produces a mixture of venom peptides known as ponericins ([Orivel et al., 2001]). These peptides have been subdivided into three sub-classes based on the amino acid sequences (L, W, and G) and contain a total of 15 independent peptide sequences. […] Among these peptides, the L1 sequence was the most poorly characterized.

[6] = Red edge excitation shift (REES) solution aggregation assay; type: physicochemical; details: 2 μM peptide in PBS pH 7.0, λex 280 to 307 nm, emission 310 to 410 nm, Trp fluorescence, average of three replicates
Excerpt: All fluorescence spectroscopy experiments were preformed using a JY-Horiba Fluoromax4 instrument. Excitation and emission slit widths were kept consistent at 2.5 nm. Semi-micro quartz cuvettes were utilized for each experiment. The following formula was used to calculate a spectral barycenter for each experiment: (1) B=∑λ*i/∑i where B is the barycenter, λ is the wavelength, and i is the intensity at the specified wavelength. An entire emission spectrum from 300-400 was used the carry out the calculation of barycenter.
Red edge excitation shift (REES) experiments utilized excitation at 6 different wavelengths (λex = 280, 290, 295, 300, 305, and 307 nm) and the same emission range of 310 to 410 nm. Samples were similarly prepared as above. A blank only containing PBS buffer was used as background to correct the spectra after each addition.
Aggregation of peptides was assessed utilizing the intrinsic fluorescence properties of the Trp residue in the L1 sequence. […] Differences in the side chain motion/dynamics of the Trp residue and the local environment around the Trp can be observed by monitoring the red-edge excitation shifts (REES). […]

Row | Sequence | TCE quenching of Trp fluorescence (extent) [1] | Acrylamide quenching Ksv, PCPG [2] | Acrylamide quenching Ksv, PEPG [2] | Acrylamide quenching Ksv, PC [2] | Acrylamide quenching Ksv, PC/Chol [2] | Acrylamide quenching Ksv, PBS [2] | Antimicrobial activity (summary of MIC results) [3] | Outer membrane permeabilization [4] | Hemolytic activity [5] | REES total shift [6]
1 | AAKEAWTKMKGAGKAAAGKAKGAA [L1A] | markedly lower than the others | 10.9 ± 0.26 M⁻¹ | 3.59 ± 0.58 M⁻¹ | 8.51 ± 0.46 M⁻¹ | 10.79 ± 0.27 M⁻¹ | 8.19 ± 0.90 M⁻¹ | no antimicrobial activity | – | – | –
2 | IIKEIWTKMKGAGKAIIGKIKGII [L1I] | – | 8.72 ± 2.09 M⁻¹ | 3.39 ± 2.25 M⁻¹ | 4.9 ± 1.51 M⁻¹ | 12.65 ± 0.63 M⁻¹ | 10.5 ± 0.67 M⁻¹ | broad spectrum activity | no membrane disruption above background | – | –
3 | LLKELWTKMKGAGKAVLGKIKGLL [L1, ponericin L1] | – | – | – | – | – | – | – | – | very low level of hemolytic activity | –
4 | VVKEVWTKMKGAGKAVVGKVKGVV [L1V] | showed the most quenching | 16.86 ± 6.47 M⁻¹ | 5.64 ± 0.38 M⁻¹ | 4.18 ± 0.15 M⁻¹ | 12.19 ± 1.54 M⁻¹ | 12.14 ± 1.59 M⁻¹ | no antimicrobial activity | – | – | ~ 10 nm
